Where “and” joins values, the source holds several entries; their conditions need not be identical. Identical values can stand only once.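 Exposure lasted 48 hours, with cells grown in 96-well plates and compounds tested at five concentrations. GI50 marks 50% less growth. TGI denotes the concentration required for complete inhibition of growth.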
Legend:
Test in all cases: NCI tumour cell line growth inhibition, 48 h
HOP-18 NSCLC = test system: HOP-18 NSCLC
KM20L2 colon = test system: KM20L2 colon
RXF-631 renal = test system: RXF-631 renal
SNB-78 CNS = test system: SNB-78 CNS
XF 498 CNS = test system: XF 498 CNS
BT-549 breast = test system: BT-549 breast
DU-145 prostate = test system: DU-145 prostate
MDA-N = test system: MDA-N
P388 leukemia = test system: P388 leukemia
P388/ADR leukemia = test system: P388/ADR leukemia
PC-3 prostate = test system: PC-3 prostate
SN12K1 renal = test system: SN12K1 renal

Row | SMILES | TGI (HOP-18 NSCLC) | TGI (KM20L2 colon) | TGI (RXF-631 renal) | TGI (SNB-78 CNS) | TGI (XF 498 CNS) | also measured
1 | COc1cc(C(C)c2cc3c(cc2OCCOCCOc2cc4c(cc2C(C)c2cc(OC)c(OC)c(OC)c2)OCO4)OCO3)cc(OC)c1OC (stereo not drawn) | > 10 µM | > 100 µM | > 100 µM | > 10 µM | > 10 µM | GI50 (KM20L2 colon): > 100 µM; GI50 (RXF-631 renal): > 100 µM
2 | NC(N)=NS(=O)(=O)c1ccc(NC(=O)c2ccc(Cl)c3c(Nc4ccc(S(=O)(=O)N=C(N)N)cc4)c4ccccc4nc23)cc1 | > 100 µM | > 100 µM | > 100 µM | > 100 µM | – | –
3 | CC(=O)N1C(=O)C(=O)c2cc(Cl)ccc21 | > 100 µM | – | > 100 µM | > 100 µM | 65.2 µM | –
4 | COC(=O)c1c(C(=O)OC)c(C(=O)OC)c(C(=O)OC)c1C(=O)OC | > 100 µM | > 100 µM | > 100 µM | – | – | –
5 | C=CC1(C)/C(=N\O)C(C)(CC)C(=O)N1O (stereo not drawn) | > 100 µM | – | > 100 µM | > 100 µM | > 100 µM | –
6 | O=c1c2cc(-c3ccccc3)sc2nc2sc(-c3ccccc3)nn12 | > 100 µM | > 100 µM | > 100 µM | > 100 µM | > 100 µM | –
7 | N#CC(C(=N/NC(N)=S)/C(=N\NC(N)=S)C(C#N)c1ccccc1)c1ccccc1 (stereo not drawn) | > 10 µM | > 10 µM | > 10 µM | > 10 µM | > 10 µM | –
8 | CC[O+]=c1cccc2ssnc1-2 | > 100 µM | > 100 µM | > 100 µM | > 100 µM | 66.9 µM | –
9 | COc1ccc2c(CCNS(=O)(=O)c3ccccc3)c(C(C)=O)[nH]c2c1[N+](=O)[O-] | – | > 100 µM | > 100 µM | > 100 µM | – | –
10 | COC(=O)/C=C\C1C(C(=O)OC)C2(C(=O)OC)CCC1(C(=O)OC)N2 (stereo not drawn) | 28.9 µM | > 61.8 µM | 48.7 µM | 35.9 µM | 34.3 µM | –
11 | C=CCCC12CCCC(=O)C1Sc1ccc3ccccc3c12 (stereo not drawn) | 61.2 µM | – | 34 µM | 60.8 µM | – | –
12 | CCN(CC)CCNc1ccc(CO)c2sc3ccccc3c(=O)c12 | 29.7 µM and 24.6 µM | 18.4 µM and 22.6 µM | – | 35.1 µM and 28.4 µM | 24.5 µM | GI50 (BT-549 breast): 6.99 µM; TGI (BT-549 breast): 21.9 µM and 26.9 µM; GI50 (DU-145 prostate): 2.99 µM; TGI (DU-145 prostate): 9.87 µM and 27.6 µM; GI50 (HOP-18 NSCLC): 3.02 µM and 11.4 µM; TGI (MDA-N): 16.6 µM; TGI (P388 leukemia): 8.68 µM; TGI (P388/ADR leukemia): 31.3 µM; GI50 (PC-3 prostate): 3.65 µM; TGI (PC-3 prostate): 17.5 µM and 17.8 µM; TGI (SN12K1 renal): 17.4 µM
13 | Cc1cc(Cl)ccc1N1C(=O)C(=O)C(c2nc3ccccc3s2)/C(=N\NC(=O)c2ccccc2O)C1=O (stereo not drawn) | > 100 µM | > 100 µM | > 100 µM | > 100 µM | – | –
14 | CCCCCCCCCCSS(=O)(=O)c1ccc(C)cc1 | 43.1 µM | 33.3 µM | 17.2 µM | 29.5 µM | 26 µM | –
15 | CC(C)c1cccc2sc(NC(=O)C(=O)CC(=O)c3ccc(F)cc3)nc12 | – | > 100 µM | > 100 µM | > 100 µM | > 100 µM | –
16 | CCC1(c2ccncc2)CCC(=O)NC1=O (stereo not drawn) | – | > 100 µM | > 100 µM | > 100 µM | > 100 µM | –
17 | CN1NC(c2ccccc2)=C(C#N)C(=O)CC1c1ccccc1Cl (stereo not drawn) | > 100 µM | – | > 100 µM | > 100 µM | > 100 µM | –
18 | CCC1N2CCCCC2[C@@H]2c3[nH]c4ccccc4c3CCN12 (stereo partly drawn) | > 100 µM | > 100 µM | > 100 µM | > 100 µM | > 100 µM | –
19 | O=S(O)CCCCSSCCCCS(=O)(O)=S | > 100 µM | > 100 µM | > 100 µM | > 100 µM | 33.2 µM | –
20 | Cc1ccc(S(=O)(=O)NC(C)C(=O)O)cc1 (stereo not drawn) | > 100 µM | > 100 µM | > 100 µM | – | > 100 µM | –

Reference: PubChem BioAssay (NCI)
